As usually defined, the pKi is the negative decadic logarithm of the Ki, by convention in mol/L. A word on the pIC50: it is the IC50 on a negative log10 scale, so that one unit is a factor of ten.

SMILES strings stand for the structures. pIC50, pKi: −log10 of the molar value.

Consider 4 molecules from patent US8129366B2, “VLA-4 inhibitory drug” (Daiichi Sankyo Company, Limited, priority 2005, dated 2012).

One series deals with T1, hα4 and β1 integrins (Homo sapiens, UniProt P05556+P13612).
T1 construct: expressed in transfected cells; host or cells: CHO cells
Put plainly: In vitro inhibition of binding between CHO cells expressing hα4 and β1 integrins and Eu3+-hVCAM-1 D1D7-IgG. The following applies: for pKi: CHO cells expressing hα4 and β1 integrins, Eu3+-hVCAM-1 D1D7-IgG ligand, without HSA; for pIC50: in the presence of 3% human serum albumin (HSA final concentration 3%). Summed up: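 Transfected CHO cells, cultured 2 days, were incubated with compound and Eu³⁺-hVCAM-1 D1D7-IgG (diluted to 2 nM) for 1 h at room temperature. Buffer was 25 mM HEPES pH 7.5 with 1 mM Ca²⁺, 1 mM Mg²⁺, 4 mM Mn²⁺ and 0.1% BSA, ±3% HSA final. Cells were washed at 4 °C and read by DELFIA time-resolved fluorescence; Ki was derived from IC50 using the Scatchard Kd.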

Series [1] concerns eosinophile infiltration in mice actively sensitized with ascaris. Put plainly: Test for eosinophile infiltration in mice actively sensitized with ascaris, once-a-day administration. Format: in vivo. On the procedure:
(§1) Test for eosinophile infiltration in mice actively sensitized with ascaris (antigen to pig roundworm):
In the same manner as in Evaluation Example 2, the substances under test were orally administered once a day, in an amount of 5 mg/kg for compound A (representative compound of WO 02/053534) and the compound of Example 58, and in an amount of 0.8 mg/kg of the compound of Example 161, and an evaluation was performed in the same manner as in Evaluation Example 2.

The test system is the same in series [2]. Kind of series: Test for eosinophile infiltration in mice actively sensitized with ascaris, administered two times a day. Format: in vivo. To be noted: orally 5 mg/kg two times a day. On the procedure: as §1
It has been reported that infiltration of eosinophilic cells is induced by active sensitization with ascaris {Int. Arch. Immuno., 108, 11-18 (1995)}. An evaluation of the compounds under test was performed according to the evaluation method described herein. The substance under test was orally administered in an amount of 5 mg/kg, two times a day. The total cell count and the eosinophile count in BALF of 48 hours after sensitization were calculated, and the effects were determined by comparing with the group not administered with the substance under test.

Series [3] can be described thus: Test for pharmacokinetics and oral absorbability in monkeys. Format: in vivo. The following applies: orally 0.5 mg/kg, single agent. On the procedure: The pharmacokinetic parameters in the case of orally administering (0.5 mg/kg, single agent) the substance under test to monkeys, were as follows.
For series [4] the following is noted: for Solubility, First liquid of Japanese Pharmacopoeia: pH 1.2; for Solubility, Second liquid of Japanese Pharmacopoeia: pH 6.8.
Method: The solubilities of the substance under test in the first liquid (JP1, pH=1.2) of the Japanese Pharmacopoeia and the second liquid (JP2, pH=6.8) of the Japanese Pharmacopoeia, were evaluated.

T1 sequence (P13612 34-1032): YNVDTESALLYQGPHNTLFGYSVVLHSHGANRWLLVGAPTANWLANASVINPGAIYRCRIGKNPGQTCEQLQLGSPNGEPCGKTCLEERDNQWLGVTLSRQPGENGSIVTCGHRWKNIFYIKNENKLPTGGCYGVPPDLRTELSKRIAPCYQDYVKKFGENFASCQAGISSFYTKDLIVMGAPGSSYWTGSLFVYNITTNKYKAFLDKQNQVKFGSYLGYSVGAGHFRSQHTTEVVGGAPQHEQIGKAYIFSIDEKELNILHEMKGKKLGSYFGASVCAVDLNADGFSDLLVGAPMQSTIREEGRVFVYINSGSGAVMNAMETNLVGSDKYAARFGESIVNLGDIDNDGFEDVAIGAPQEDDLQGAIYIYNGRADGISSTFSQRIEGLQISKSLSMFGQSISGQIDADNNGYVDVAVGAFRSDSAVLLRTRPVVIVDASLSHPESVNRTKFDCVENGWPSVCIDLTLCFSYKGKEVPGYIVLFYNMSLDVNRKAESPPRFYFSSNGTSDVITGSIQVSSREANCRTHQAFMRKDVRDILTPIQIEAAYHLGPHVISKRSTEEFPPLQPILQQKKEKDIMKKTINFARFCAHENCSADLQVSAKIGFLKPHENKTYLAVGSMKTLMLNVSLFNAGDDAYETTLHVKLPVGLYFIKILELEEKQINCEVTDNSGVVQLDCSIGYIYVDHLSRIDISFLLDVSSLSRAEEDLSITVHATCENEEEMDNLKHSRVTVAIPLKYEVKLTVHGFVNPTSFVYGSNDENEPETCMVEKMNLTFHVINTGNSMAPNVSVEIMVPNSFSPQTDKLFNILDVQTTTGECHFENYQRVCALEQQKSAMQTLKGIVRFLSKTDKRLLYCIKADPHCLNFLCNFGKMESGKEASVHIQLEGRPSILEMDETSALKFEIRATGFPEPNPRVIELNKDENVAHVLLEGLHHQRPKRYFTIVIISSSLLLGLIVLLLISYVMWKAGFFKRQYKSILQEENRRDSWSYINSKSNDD
T1 sequence (P05556 21-798): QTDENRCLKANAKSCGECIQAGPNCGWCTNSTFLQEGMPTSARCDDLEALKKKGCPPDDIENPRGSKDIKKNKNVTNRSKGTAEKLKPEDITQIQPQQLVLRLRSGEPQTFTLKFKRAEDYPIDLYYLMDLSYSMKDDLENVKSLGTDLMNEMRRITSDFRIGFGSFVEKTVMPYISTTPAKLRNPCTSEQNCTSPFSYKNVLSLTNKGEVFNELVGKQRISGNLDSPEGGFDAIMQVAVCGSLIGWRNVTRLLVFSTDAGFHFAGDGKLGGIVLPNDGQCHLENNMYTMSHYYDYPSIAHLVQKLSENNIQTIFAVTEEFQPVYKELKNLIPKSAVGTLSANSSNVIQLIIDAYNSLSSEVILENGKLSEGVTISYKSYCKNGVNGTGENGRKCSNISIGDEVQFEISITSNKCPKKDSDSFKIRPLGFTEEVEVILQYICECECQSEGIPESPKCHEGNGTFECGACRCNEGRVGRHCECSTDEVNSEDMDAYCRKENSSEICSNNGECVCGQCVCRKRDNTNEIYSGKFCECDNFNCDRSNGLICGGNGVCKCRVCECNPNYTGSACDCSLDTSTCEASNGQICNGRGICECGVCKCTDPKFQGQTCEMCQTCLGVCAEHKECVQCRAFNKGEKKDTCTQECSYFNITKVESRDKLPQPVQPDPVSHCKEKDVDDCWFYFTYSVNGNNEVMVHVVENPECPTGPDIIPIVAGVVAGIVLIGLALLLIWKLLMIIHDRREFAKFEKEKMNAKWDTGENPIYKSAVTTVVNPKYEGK

In the case of `O=C(Nc1cc(F)c(CC(=O)N2C[C@@H](N3CCS(=O)(=O)CC3)C[C@H]2CO[C@H]2CC[C@H](C(=O)O)CC2)cc1Cl)c1coc2ccccc12` [Example 161, Trans-4-[1-[[4-[(benzo[b]furan-3-ylcarbonyl)amino]-5-chloro-2-fluorophenyl]acetyl]-(4S)-(1,1-dioxo-1λ^6-thiomorpholin-4-yl)-(2S)-pyrrolidinylmethoxy]cyclohexanecarboxylic acid], at hα4 and β1 integrins, the pKi is 8.74 and the pIC50 is 8.08. In series [1] (orally 0.8 mg/kg once a day), the “Average total eosinophile count (×10^5) of (ascaris-sensitized + substance under test) group” value is recorded as 2.06 ×10^5.

`CO[C@H]1CN([C@H]2C[C@@H](CO[C@H]3CC[C@H](C(=O)O)CC3)N(C(=O)Cc3cc(Cl)c(NC(=O)c4csc5ccccc45)cc3Cl)C2)C[C@H]1OC` [Example 58, Trans-4-[1-[[4-[(benzo[b]thiophen-3-ylcarbonyl)amino]-2,5-dichlorophenyl]acetyl]-(4S)-(cis-3,4-dimethoxypyrrolidin-1-yl)-(2S)-pyrrolidinylmethoxy]cyclohexanecarboxylic acid] showed a pKi on hα4 and β1 integrins of 8.82. Moreover, the pIC50 on hα4 and β1 integrins was 8.03. Moreover, the inhibition in vivo at 5 mg/kg in series [2] (Mus musculus, po, eosinophile count in BALF 48 hours after sensitization vs ascaris-sensitized group, read-out: suppression rate (%)) turned out to be 63%. Moreover, the “Average total eosinophile count (×10^5) of (ascaris-sensitized + substance under test) group” value is 1.63 ×10^5 in series [2] (BALF 48 hours after sensitization) and 1.73 ×10^5 in series [1] (orally 5 mg/kg once a day). The “Cltot (mL/min/kg): apparent plasma clearance” value in series [3] is listed as 2.0 mL/min/kg. Further, the “AUC (ng · h/ml): total area under the plasma concentration versus time curve” value in series [3] (plasma, LC/MS/MS) came to 7555 ng·h/mL.

As for `CO[C@H]1CN([C@H]2C[C@@H](CO[C@H]3CC[C@H](C(=O)O)CC3)N(C(=O)Cc3ccc(NC(=O)c4coc5ccccc45)c(Cl)c3)C2)C[C@H]1OC` (relative stereo) [Example 61, Trans-4-[1-[[4-[(benzo[b]furan-3-ylcarbonyl)amino]-3-chlorophenyl]acetyl]-(4S)-(cis-3,4-dimethoxypyrrolidin-1-yl)-(2S)-pyrrolidinylmethoxy]cyclohexanecarboxylic acid], at hα4 and β1 integrins, the pKi is 8.80 and the pIC50 is 8.26. Also, in series [4], the “Solubility, First liquid of Japanese Pharmacopoeia” value was 1100 µg/mL and the “Solubility, Second liquid of Japanese Pharmacopoeia” value stood at 1300 µg/mL.

For `COC1CN([C@H]2C[C@@H](CO[C@H]3CC[C@H](C(=O)O)CC3)N(C(=O)Cc3cc(Cl)c(NC(=O)c4csc5ccccc45)cc3Cl)C2)C1` (relative stereo) [Example 4, Trans-4-[1-[[4-[(benzo[b]thiophen-3-ylcarbonyl)amino]-2,5-dichlorophenyl]acetyl]-(4S)-(3-methoxyazetidin-1-yl)-(2S)-pyrrolidinylmethoxy]cyclohexanecarboxylic acid], at hα4 and β1 integrins, the pKi is 9.10 and the pIC50 is 7.72. Moreover, in series [4], the “Solubility, First liquid of Japanese Pharmacopoeia” value was more than 2000 µg/mL and the “Solubility, Second liquid of Japanese Pharmacopoeia” value is more than 2000 µg/mL.
